Assay results reported in patent US20030216361A1, “Therapeutic compositions effective against gram positive bacteria” (priority 2000, published 2003).
Converted amounts (≈) assume the structure as drawn. Read-outs that look alike come from different tables or passages of the source.

Assays:
[1] = test system: S. pneumoniae 6303; experiment: Time-kill studies; assay type: cell-based, Streptococcus pneumoniae
Source text: (§1) This experiment illustrates a study of the time required (time-kill studies) for anti-microbial action of 3β-acetoxy-17β-(L-prolyl) amino-5α-androstane with certain gram positive bacteria.
(§2) Overnight cultures of Staphylococcus aureus 29213, Enterococcus faecalis 29212 and S. pneumoniae 6303 in MHII broth were inoculated into the same medium containing multiples of the broth macrodilution MIC of 3β-acetoxy-17β-(L-prolyl) amino-5α-androstane, or an equivalent volume of MeOH. Cultures were shaken at 37° C., and aliquots were aseptically removed at various times for dilution plating. Standard errors of the means were calculated from at least two experiments. The detection limit in these experiments was 10 CFU/ml.

[2] = test system: Micrococcus luteus Presque Isle 456; experiment: Disk diffusion susceptibility testing
[3] = test system: Bacillus subtilis Presque Isle 620; experiment: Disk diffusion susceptibility testing
[4] = test system: Staphylococcus aureus ATCC 29213; experiment: Broth macrodilution MIC and MBC, reference strains; conditions: ATCC29213
[5] = test system: Nocardia asteroides; experiment: Broth macrodilution MIC and MBC, clinical isolates; conditions: clinical isolate, 1 strain
[6] = test system: Staphylococcus epidermidis Presque Isle 4653; experiment: Disk diffusion susceptibility testing
[7] = test system: S. aureus ATCC 29213; experiment: Effect of pH on broth macrodilution MICs; assay type: cell-based, Staphylococcus aureus
[8] = test system: Listeria monocytogenes; experiment: Broth macrodilution MIC and MBC, clinical isolates; conditions: 3 strains
[9] = test system: Stenotrophomonas maltophilia ATCC 13637; experiment: Disk diffusion susceptibility testing
[10] = test system: Lactobacillus spp.; experiment: Broth macrodilution MIC and MBC, clinical isolates; conditions: clinical isolate, 1 strain
[11] = test system: Corynebacterium diphtheriae; experiment: Broth macrodilution MIC and MBC, clinical isolates; conditions: 3 strains
[12] = test system: Candida albicans ATCC 90028; experiment: Disk diffusion susceptibility testing
[13] = test system: Vancomycin-resistant E. faecium; experiment: Broth macrodilution MIC and MBC, clinical isolates; conditions: 2 strains
[14] = test system: Escherichia coli ATCC 25922; experiment: Disk diffusion susceptibility testing
[15] = test system: Gordona bronchialis; experiment: Broth macrodilution MIC and MBC, clinical isolates; conditions: clinical isolate, 1 strain
[16] = test system: Gardnerella vaginalis; experiment: Broth macrodilution MIC and MBC, clinical isolates; conditions: 2 strains
[17] = test system: Vancomycin-resistant Enterococcus spp.; experiment: Broth macrodilution MIC and MBC, clinical isolates
[18] = test system: Enterococcus faecalis ATCC 29212; experiment: Disk diffusion susceptibility testing
[19] = test system: E. faecalis ATCC 29212; experiment: Effect of pH on broth macrodilution MICs; assay type: cell-based, Enterococcus faecalis
[20] = test system: N. farcinica; experiment: Broth macrodilution MIC and MBC, clinical isolates; conditions: clinical isolate, 1 strain
[21] = test system: Enterococcus faecalis ATCC 29212; experiment: Frequency of occurrence of spontaneous resistant mutants; assay type: cell-based; conditions: 24 h
Protocol: (§3) Overnight cultures of S. aureus 29213, E. faecalis 29212, S. pneumoniae 6303 and Bacillus subtilis 620 were diluted to an OD625nm=0.08 0.1 ml of each preparation was spread onto agar plates containing four or eight times the broth macrodilution MIC of the androstane derivative. The starting inoculum for each organism was also diluted and plated onto drug-free plates for determination of CFU/ml. After a 24 h incubation at the appropriate temperature, the number of bacterial colonies on drug-supplemented agar was counted. The frequency of occurrence of spontaneous mutants was calculated by dividing the number of colonies on drug containing plates by the number of colonies in the inoculum. When no colonies were visualized on drug-containing plates, the calculation was (<) 1 colony divided by the number of colonies in the inoculum.

[22] = test system: Bacillus subtilis Presque Isle 620; experiment: as above; assay type: cell-based; conditions: 24 h
Protocol: as §3

[23] = test system: Staphylococcus aureus ATCC 29213; experiment: as above; assay type: cell-based; conditions: 24 h
Protocol: as §3

[24] = test system: Streptococcus pneumoniae ATCC 6303; experiment: as above; assay type: cell-based; conditions: 24 h
Protocol: as §3

[25] = test system: Enterococcus faecalis 29212; experiment: Time-kill studies; assay type: cell-based; conditions: E. faecalis
Source text: as §1, §2

[26] = test system: Staphylococcus aureus 29213; experiment: Time-kill studies; assay type: cell-based; conditions: S. aureus
Source text: as §1, §2

[27] = test system: Vancomycin-resistant E. faecalis; experiment: Broth macrodilution MIC and MBC, clinical isolates; conditions: 2 strains
[28] = pH 6, range of 3 determinations
[29] = pH 7, range of 3 determinations
[30] = pH 8, range of 3 determinations
[31] = agar with 4X broth macrodilution MIC
[32] = agar with 8X broth macrodilution MIC

CC(=O)O[C@H]1CC[C@@]2(C)[C@@H](CC[C@@H]3[C@@H]2CC[C@]2(C)[C@@H](NC(=O)[C@@H]4CCCN4)CC[C@@H]32)C1
Killing (concentration dependence) [1]: concentration-dependent | Killing (time dependence) [1]: time-dependent | time to 99.9% kill ([1]; at the MIC): 6 h | survivors after 24 h ([1]; one times the MIC): no survivors | time to 99.9% kill ([1]; two times the MIC): 2 h | survivors after 24 h ([1]; two times the MIC): no survivors | MIC [2]: 1.56-3.12 μg/disk | MIC [3]: 3.12-6.25 μg/disk | MBC [4]: 64 µg/mL (≈ 149 µM) | MIC [4]: 4 µg/mL (≈ 9.29 µM) | MBC Range [5]: 32 µg/mL (≈ 74.3 µM) | MIC Range [5]: 8 µg/mL (≈ 18.6 µM) | MIC [6]: 6.25-12.5 μg/disk | MIC Range [7, 28]: 8 to 16 µg/mL | MIC Range [7, 29]: 8 µg/mL (≈ 18.6 µM) | MIC Range [7, 30]: 4 µg/mL (≈ 9.29 µM) | MBC Range [8]: 32 to 64 µg/mL | MIC Range [8]: 16 to 32 µg/mL | MIC [9]: >100 μg/disk | MBC Range [10]: 32 µg/mL (≈ 74.3 µM) | MIC Range [10]: 16 µg/mL (≈ 37.2 µM) | MBC Range [11]: 8 µg/mL (≈ 18.6 µM) | MIC Range [11]: 4 to 8 µg/mL | MIC [12]: >100 μg/disk | MBC Range [13]: 16 to 64 µg/mL | MIC Range [13]: 8 to 16 µg/mL | MIC [14]: >100 μg/disk | MBC Range [15]: 8 µg/mL (≈ 18.6 µM) | MIC Range [15]: 8 µg/mL (≈ 18.6 µM) | MBC Range [16]: 8 µg/mL (≈ 18.6 µM) | MIC Range ([16]; read after 48 h): 4 µg/mL (≈ 9.29 µM) | MIC50 ([17]; Enterococcus): 8 µg/mL (≈ 18.6 µM) | MIC90 ([17]; Enterococcus): 16 µg/mL (≈ 37.2 µM) | MBC ([17]; Enterococcus, read-out: MBC 50%): 16 µg/mL (≈ 37.2 µM) | MBC ([17]; Enterococcus, read-out: MBC 90%): > 64 µg/mL | MIC Range ([17]; clinical isolates, 34 strains): 4 to 16 µg/mL | share of strains with MBC/MIC ratios ≦2 ([17]; vancomycin-resistant Enterococcus spp.): 59% | MIC [18]: 25-50 μg/disk | MIC Range [19, 28]: 32 µg/mL (≈ 74.3 µM) | MIC Range [19, 29]: 8 to 16 µg/mL | MIC Range [19, 30]: 4 to 8 µg/mL | MBC Range [20]: 64 µg/mL (≈ 149 µM) | MIC Range [20]: 16 µg/mL (≈ 37.2 µM) | Frequency at 4X MIC [21, 31]: 8.9 × 10^−7 | Frequency at 8X MIC [21, 32]: <1 × 10^−8 | Frequency at 4X MIC [22, 31]: <2.2 × 10^−7 | Frequency at 8X MIC [22, 32]: <2.2 × 10^−7 | Frequency at 4X MIC [23, 31]: 1.2 × 10^−6 | Frequency at 8X MIC [23, 32]: <6 × 10^−9 | Frequency at 4X MIC [24, 31]: <3.3 × 10^−6 | Frequency at 8X MIC [24, 32]: <3.3 × 10^−6 | Killing (time dependence) [25]: time-dependent | time to 99.9% kill ([25]; eight times the MIC): 4 h | survivors after 24 h ([25]; eight times the MIC): no survivors | time to 99.9% kill ([25]; four times the MIC): 8 h | survivors after 24 h ([25]; four times the MIC): no survivors | time to 99.9% kill ([25]; two times the MIC): 8 h | Killing (time dependence) [26]: time-dependent | MBC Range [27]: 16 to 64 µg/mL | MIC Range [27]: 8 to 16 µg/mL
